Assay results as given in the PolyMetriX glass transition set.
± gives the standard deviation of the reports.

Row | SMILES | glass transition temperature [°C]
1 | *CC(*)(C)C(=O)OCCCCC1CCCCC1 (repeat unit) | 43.00
2 | *NC1CCC(CC2CCC(NC(=O)CCCCCCCCCCC(*)=O)CC2)CC1 (repeat unit) | 142.00
3 | *Oc1cc(OC(=O)c2ccc(C(*)=O)cc2)cc(C(=O)OCCN(CC)c2ccc(/N=N/c3ccc([N+](=O)[O-])cc3)cc2)c1 (repeat unit) | 130.00
4 | *CC(F)(F)C(F)(F)C(F)(F)COC(=O)c1cccc(-c2cccc(C(=O)O*)c2)c1 (repeat unit) | 45.00
5 | *c1cccc(Oc2ccc(P(=O)(c3ccccc3)c3ccccc3)c(Oc3cccc(N4C(=O)c5ccc(-c6ccc7c(c6)C(=O)N(*)C7=O)cc5C4=O)c3)c2)c1 (repeat unit) | 234.00
6 | *CC(*)C(=O)OC1CCCCC1 (repeat unit) [Poly(cyclohexyl acrylate)] | 20.42 ± 6.5
7 | *CC(*)(CC(=O)OCC1CCCCC1)C(=O)OCC1CCCCC1 (repeat unit) | 83.00
8 | *C(=O)c1ccc2c(c1)C(=O)N(c1ccc(Cc3ccccc3N3C(=O)c4ccc(*)cc4C3=O)cc1)C2=O (repeat unit) | 290.00
9 | *CC(=O)O* (repeat unit) | 45.00
10 | *C(=O)c1cccc(C(=O)c2ccc3c(c2)C(=O)N(c2ccc(Oc4ccc(S(=O)(=O)c5ccc(Oc6ccc(N7C(=O)c8ccc(*)cc8C7=O)cc6)cc5)cc4)cc2)C3=O)c1 (repeat unit) | 249.00
11 | *c1ccc(-c2cnc3cc(-c4ccc5nc(*)cnc5c4)ccc3n2)cc1 (repeat unit) | 350.00
12 | *Cc1ccc(C[n+]2ccc(-c3cc[n+](*)cc3)cc2)cc1 (repeat unit) | 95.00
13 | *OC(COC(=O)Nc1ccc(Cc2ccc(NC(*)=O)cc2)cc1)c1ccco1 (repeat unit) | 40.00
14 | *CC(*)(C)C(=O)OCCCCCC(=O)Oc1ccc(OC(=O)c2ccc(OC)cc2)cc1 (repeat unit) | 40.00
15 | *Oc1cc(OCCOC)c(OC(=O)c2ccc(C(*)=O)cc2-c2ccccc2)cc1OCCOC (repeat unit) | 92.00
16 | *CCCCCCNC(=O)c1cccc(C(=O)N*)c1 (repeat unit) [Poly(hexamethylene isophthalamide) ] | 129 ± 5.4
17 | *c1ccc2c(c1)C(=O)N(c1cccc(NC(=O)C(F)(F)C(F)(F)C(F)(F)C(F)(F)C(F)(F)C(F)(F)C(=O)Nc3cccc(N4C(=O)c5ccc(C(*)(C(F)(F)F)C(F)(F)F)cc5C4=O)c3)c1)C2=O (repeat unit) | 218.00
18 | *Oc1ccc(OC(=O)c2ccc(C(*)=O)cc2Sc2ccccc2)cc1C (repeat unit) | 130.00
19 | *OP(=O)(Oc1ccc(OC)cc1)Oc1c(Br)cc(C(c2cc(Br)c(*)c(Br)c2)(C(F)(F)F)C(F)(F)F)cc1Br (repeat unit) | 151.00
20 | *c1ccc(Oc2ccc(N3C(=O)c4ccc(Oc5ccc6c(c5)C(=O)N(*)C6=O)cc4C3=O)cc2)cc1 (repeat unit) | 269.00 ± 14
21 | *O[Si](*)(C)c1ccc(C)cc1 (repeat unit) | -17.00
22 | *Oc1cc(C)c(C(c2cc(C(C)C)c(Oc3ccc(C(=O)c4ccc(*)cc4)cc3)cc2C)c2ccccc2C(=O)O)cc1C(C)C (repeat unit) | 228.00
23 | *c1ccc(NC(=O)c2cc(NC(=O)c3ccc(OC(C)=O)cc3)cc(C(=O)Nc3ccc(-c4nnc(*)o4)cc3)c2)cc1 (repeat unit) | 280.00

Row | SMILES | glass transition temperature [°C]
24 | *CC[CH2][Sn]([CH3])([CH3])[CH2]CCOC(=O)C(CCCCCCOc1ccc(-c2ccc(OCc3ccc([N+](=O)[O-])cc3)cc2)cc1)C(=O)O* (repeat unit) | 40.50
25 | *CC(*)(C)c1ccc2ccccc2c1 (repeat unit) | 208.00
26 | *c1ccc2c(c1)C(=O)N(c1cccc(NC(=O)C(F)(F)C(F)(F)C(F)(F)C(F)(F)C(=O)Nc3cccc(N4C(=O)c5ccc(C(*)(C(F)(F)F)C(F)(F)F)cc5C4=O)c3)c1)C2=O (repeat unit) | 232.00
27 | */C=C/c1cc(OCCCCCCCC)c(/C=C/c2ccc(*)c3nsnc23)cc1OCCCCCCCC (repeat unit) | 153.00
28 | *C(=O)OCC(C)(C)CS(=O)(=O)CC(C)(C)COC(=O)N1CC(C)N(*)CC1C (repeat unit) | 85.00
29 | *c1cccc(Cc2cccc(-n3c(=O)c4cc5c(=O)n(*)c(=O)c5cc4c3=O)c2)c1 (repeat unit) | 327.50
30 | *CC1CC2CC1C1CCC(CN3C(=O)c4ccc(-c5ccc6c(c5)C(=O)N(*)C6=O)cc4C3=O)C21 (repeat unit) | 230.00
31 | *Oc1ccc(-c2ccc(OC(*)(Oc3ccccc3)Oc3ccccc3)cc2)cc1 (repeat unit) | 112.00
32 | *c1ccc(Oc2ccc(C(=O)c3ccc(Oc4ccc(-c5nc(-c6ccc(-c7nc(*)c(-c8ccccc8)[nH]7)cc6)[nH]c5-c5ccccc5)cc4)cc3)cc2)cc1 (repeat unit) | 276.00
33 | *C(=O)Nc1ccc(C(=O)c2ccc(NC(=O)c3ccc4c(c3)C(=O)N(c3cccc(P(=O)(c5ccccc5)c5cccc(N6C(=O)c7ccc(*)cc7C6=O)c5)c3)C4=O)cc2)cc1 (repeat unit) | 238.00
34 | *Oc1ccc2ccc(Oc3ccc(C(=O)Nc4ccc(Oc5ccc(Oc6ccc(NC(=O)c7ccc(*)cc7)cc6)cc5)cc4)cc3)cc2c1 (repeat unit) | 191.00
35 | *[O][Sn]([CH2]CCC)([CH2]CCC)[O]C(=O)/C=C/C(*)=O (repeat unit) | 186.00
36 | *c1ccc(-c2cc(CCCCCCCC)c(-c3ccc(-c4ccc(-c5sc(-c6ccc([Si](*)(CCCC)CCCC)s6)cc5CCCCCCCC)s4)s3)s2)s1 (repeat unit) | -1.00
37 | *c1ccc(Oc2ccc(-n3c(=O)c4c(Oc5ccc(OCCCC)cc5)c5c(=O)n(*)c(=O)c5c(Oc5ccc(OCCCC)cc5)c4c3=O)cc2)cc1 (repeat unit) | 269.50
38 | *O[Si](C)(C)C#C[Si](C)(C)C#C[Si](C)(C)C#C[Si](C)(C)C#C[Si](*)(C)C (repeat unit) | -23.00
39 | *c1ccc(OC(=O)c2ccc([Si](c3ccccc3)(c3ccccc3)c3ccc(C(=O)Oc4ccc(C5(*)OC(=O)c6ccccc65)cc4)cc3)cc2)cc1 (repeat unit) | 250.00
40 | *c1ccc(-c2ccc(Oc3ccc(C4(C)CC(C)(C)c5ccc(Oc6ccc(-c7ccc(-n8c(=O)c9cc%10c(=O)n(*)c(=O)c%10cc9c8=O)cc7)cc6C(F)(F)F)cc54)cc3)c(C(F)(F)F)c2)cc1 (repeat unit) | 265.00
41 | *OC(=O)c1cccc(C(=O)OC2CC3CC(*)CC(C2)O3)c1 (repeat unit) | 113.00
42 | *CC#CC#CCOc1ccc(C(=O)OCCN(CCOC(=O)c2ccc(O*)cc2)c2ccc([N+](=O)[O-])cc2)cc1 (repeat unit) | 100.00
43 | *Nc1ccc(NC(=O)c2cccc(C(*)=O)c2)cc1 (repeat unit) | 295.00
44 | *CC(*)(F)C(=O)OCCC (repeat unit) | 62.00
45 | *CCCCCCCc1nc2ccc(-c3ccc4nc(*)oc4c3)cc2o1 (repeat unit) | 85.00
